Key:
[1] = system: Desulfovibrio vulgaris; assay: Log10 reduction of viable anaerobe cells in saline phosphate buffer suspension (serial dilution into API RP 38 media vials); type: cell-based; settings: for Log10 Reduction Anaerobes: pH 7.5 phosphate buffer, room temperature; for efficacy against the anaerobe Desulfovibrio vulgaris (in words): agent alone
Experimental: (§1) A suspension of Desulfovibrio vulgaris plus Enterobacter aerogenes bacteria containing from 1××10^6 to 1×10^8 cells/mL was prepared in sterile pH 7.5 phosphate buffer containing varying levels of sodium chloride to give the desired total dissolved solids (TDS) concentration. Aliquots of this suspension were dosed with the indicated concentrations of a phosphonium compound and a hypohalite compound with the concentrations being measured as ppm by weight of the stated compounds added to the dosed suspension. The mixtures were allowed to stand at room temperature. At the designated contact times, each mixture was sampled to determine the total number of viable cells of both Desulfovibrio vulgaris and Enterobacter aerogenes by serial 10-fold dilution into API RP 38 media vials and anaerobic acid producing media vials, respectively. The vials were incubated at 37° C. for 72 hours. Results were recorded as cells per millilitre.
(§2) Aqueous media inoculated with anaerobe and facultative anaerobe culture and having a TDS of 10,000 mg l^−1; 20,000 mg l^−1; or 30,000 mg l^−1 was treated with treatment agents comprising: (i) sodium hypochlorite; (ii) tri n-butyl n-tetradecyl phosphonium chloride (TTPC) or (iii) a combination of sodium hypochlorite and TTPC.
(§3) TTPC was used in the form of Bellacide 355, an aqueous composition of TTPC and water consisting of water and […] of TTPC available from BWA Water Additives.
(§4) Sodium hypochlorite was used in the form of Clorox, an aqueous composition of sodium hypochlorite and water consisting of water and 6% by weight sodium hypochlorite available from The Clorox Company.
(§5) The efficacy of the treatment agents was evaluated by measuring the Log 10 Reduction of the anaerobe Desulfovibrio vulgaris and the facultative anaerobe Enterobacter aerogenes [after contact times of 10 and 30 minutes as detailed in Table 1. For TTPC and sodium hypochlorite the stated ppm values relate to the amount added. The addition of 35 ppm sodium hypochlorite to the aqueous system provided 2 ppm of free sodium hypochlorite in the treated aqueous system.

[2] = system: Enterobacter aerogenes; assay: Log10 reduction of viable facultative anaerobe cells in saline phosphate buffer suspension (serial dilution into anaerobic acid producing media vials); type: cell-based; settings: for Log10 Reduction Facultative Anaerobes: pH 7.5 phosphate buffer, room temperature; for efficacy against the facultative anaerobe Enterobacter aerogenes (in words): agent alone
Experimental: as §1, §2, §3, §4, §5

[3] = TDS 30,000 mg l-1, contact time 10 minutes
[4] = TDS 30,000 mg l-1, contact times of 10 and 30 minutes
[5] = TDS 30,000 mg l-1, contact time 30 minutes
[6] = TDS 20,000 mg l-1, contact time 30 minutes, listed as 4 (comparative)
[7] = TDS 20,000 mg l-1, contact time 30 minutes, listed as 3 (comparative)

SMILES: [Na+].[O-]Cl [Example 11]
- Log10 Reduction Anaerobes [1, 3]: 5
- Log10 Reduction Facultative Anaerobes [2, 3]: 2

SMILES: OCl [Sodium hypochlorite, sodium hypochlorite]
- efficacy against the anaerobe Desulfovibrio vulgaris (in words) [1, 4]: some efficacy
- efficacy against the facultative anaerobe Enterobacter aerogenes (in words) [2, 4]: some efficacy

SMILES: CCCCCCCCCCCCCC[P+](CCCC)(CCCC)CCCC.[Cl-] [Example 5]
- Log10 Reduction Anaerobes [1, 5]: 0
- Log10 Reduction Facultative Anaerobes [2, 5]: 0

SMILES: CCCCCCCCCCCCCC[P+](CCCC)(CCCC)CCCC.[Cl-] [Example 2]
- Log10 Reduction Facultative Anaerobes ([2]; TDS 10,000 mg l-1, contact time 30 minutes, listed as 2 (comparative)): 8

SMILES: CCCCCCCCCCCCCC[P+](CCCC)(CCCC)CCCC.[Cl-] [Example 1]
- Log10 Reduction Anaerobes ([1]; TDS 10,000 mg l-1, contact time 30 minutes): 6
- Log10 Reduction Facultative Anaerobes ([2]; TDS 10,000 mg l-1, contact time 30 minutes, listed as 1 (comparative)): 6

SMILES: CCCCCCCCCCCCCC[P+](CCCC)(CCCC)CCCC.[Cl-] [TTPC, tri n-butyl n-tetradecyl phosphonium chloride]
- efficacy against the anaerobe Desulfovibrio vulgaris (in words) [1, 5]: ineffective
- efficacy against the facultative anaerobe Enterobacter aerogenes (in words) [2, 5]: ineffective

SMILES: CCCCCCCCCCCCCC[P+](CCCC)(CCCC)CCCC.[Cl-] [Example 4]
- Log10 Reduction Anaerobes [1, 6]: 6
- Log10 Reduction Facultative Anaerobes [2, 6]: 5

SMILES: CCCCCCCCCCCCCC[P+](CCCC)(CCCC)CCCC.[Cl-] [Example 3]
- Log10 Reduction Anaerobes [1, 7]: 3
- Log10 Reduction Facultative Anaerobes [2, 7]: 0

SMILES: [Na+].[O-]Cl [Example 6]
- Log10 Reduction Anaerobes [1, 5]: 3
- Log10 Reduction Facultative Anaerobes [2, 5]: 3

Reference: patent US10905125B2, “Biocidal compositions and method of treating water using thereof” (BWA WATER ADDITIVES UK LIMITED, priority 2014, dated 2021)
